These results are taken from ChEMBL document CHEMBL5050844 (2019).

A short description of assay [1]: Induction of anti-CD3 antibodies-stimulated human exhausted T cell activation assessed fold increase in IL-2 secretion measured by ELISA assay. Also: reference of the scale not given here. The format is functional, T cell line. Background: An ELISA detects its analyte on a solid surface through an enzyme-linked reagent.
Assay [2] can be described thus: Induction of anti-CD3/CD28 antibodies-stimulated human CD4+ T cell activation at 1.11 uM assessed fold increase in cell proliferation measured by flow cytometry analysis. The format is functional, T cell line. For orientation: A flow cytometer gives signals particle by particle.
Assay [3] deals with T1, E3 ubiquitin-protein ligase CBL-B (Homo sapiens, UniProt Q13191). In words: Inhibition of N-terminal Avi-tagged human CBL-B (36 to 427 residues) incubated with 60 nM Src kinase for 1.5 hrs followed by incubation with fluorescently labeled UbcH5B-Ub for 1 hr and measured by TR-FRET assay. The format is single protein. (In general: TR-FRET usually uses a lanthanide donor and a delayed reading to cut background.)

Assay [4] can be described thus: Induction of anti-CD3 antibodies-stimulated human T cell activation at 8 uM assessed fold increase in CD25 expression measured by ELISA assay. Also: reference of the scale not given here. It is filed as functional, T cell line.
The nature of assay [5]: Induction of anti-CD3 antibodies-stimulated human CD8+ T cell activation in immunocompetent mouse assessed fold increase in CD25 expression at 90 mg/kg, ip administered thrice a day. Also: reference of the scale not given here. It is filed as functional.
Assay [6] is described as follows: Induction of anti-CD3 antibodies-stimulated human CD4+ T cell activation in immunocompetent mouse assessed fold increase in CD25 expression at 180 mg/kg, po administered twice a day. Also: reference of the scale not given here. It is filed as functional.
The nature of assay [7]: Induction of anti-CD3 antibodies-stimulated human CD4+ T cell activation in immunocompetent mouse assessed fold increase in CD25 expression at 90 mg/kg, po administered twice a day. Also: reference of the scale not given here. The format is functional.
Assay [8] in a line: Induction of anti-CD3 antibodies-stimulated human T cell activation at 10 uM assessed fold increase in IFN-gamma secretion measured by ELISA assay. Also: reference of the scale not given here. It is filed as functional, T cell line.
Assay [9] in a line: Induction of anti-CD3/CD28 antibodies-stimulated human CD8+ T cell activation at 1.11 uM assessed fold increase in CD69 expression measured by flow cytometry analysis. It is filed as functional, T cell line.
Assay [10] can be described thus: Induction of activation of human CD56+ CD3- NK cells co-cultured with human K562 cells in 1:1 ratio and assessed as increase in IFN-gamma secretion at 0.625 uM measured by ELISA assay. It is filed as functional, Natural killer cell.
Assay [11] can be described thus: Induction of anti-CD3 antibodies-stimulated human T cell activation at 1.11 uM assessed fold increase in TNF-alpha secretion measured by ELISA assay. Also: reference of the scale not given here. The format is functional, T cell line.
Assay [12] in a line: Induction of anti-CD3 antibodies-stimulated human CD8+ T cell activation at 10 uM assessed fold increase in CD69 expression measured by flow cytometry analysis. Also: reference of the scale not given here. It is filed as functional, T cell line.
A short description of assay [13]: Induction of anti-CD3/CD28 antibodies-stimulated human CD4+ T cell activation at 10 uM assessed fold increase in CD69 expression measured by flow cytometry analysis. It is filed as functional, T cell line.
Assay [14] in a line: Induction of anti-CD3 antibodies-stimulated human T cell activation at 1.11 uM assessed fold increase in GM-CSF secretion measured by ELISA assay. Also: reference of the scale not given here. The format is functional, T cell line.
Assay [15] can be described thus: Induction of anti-CD3/CD28 antibodies-stimulated human anergic T cell activation at 10 uM assessed fold increase in IFN-gamma secretion measured by ELISA assay. It is filed as functional, T cell line.
A short description of assay [16]: Induction of anti-CD3 antibodies-stimulated human CD4+ T cell activation in immunocompetent mouse assessed fold increase in CD25 expression at 135 mg/kg, po administered twice a day. Also: reference of the scale not given here. The format is functional.
Assay [17] is described as follows: Induction of anti-CD3 antibodies-stimulated human CD8+ T cell activation in immunocompetent mouse assessed fold increase in CD25 expression at 180 mg/kg, po administered twice a day. Also: reference of the scale not given here. The format is functional.
Assay [18] can be described thus: Induction of anti-CD3 antibodies-stimulated human CD8+ T cell activation at 1.11 uM assessed fold increase in CD69 expression measured by flow cytometry analysis. Also: reference of the scale not given here. It is filed as functional, T cell line.
Assay [19] is described as follows: Induction of anti-CD3/CD28 antibodies-stimulated human T cell activation at 0.3 uM assessed fold increase in CD25 expression measured by ELISA assay. The format is functional, T cell line.
Assay [20] in a line: Induction of anti-CD3 antibodies-stimulated human CD8+ T cell activation in immunocompetent mouse assessed fold increase in CD25 expression at 90 mg/kg, po administered twice a day. Also: reference of the scale not given here. It is filed as functional.
Assay [21] is described as follows: Induction of anti-CD3 antibodies-stimulated human exhausted CD8+ T cell activation assessed fold increase in CTLA4 expression measured by flow cytometry analysis. Also: reference of the scale not given here. It is filed as functional, T cell line.
A short description of assay [22]: Induction of anti-CD3 antibodies-stimulated human CD8+ T cell activation in immunocompetent mouse assessed fold increase in CD25 expression at 135 mg/kg, po administered twice a day. Also: reference of the scale not given here. The format is functional.
Assay [23] is described as follows: Induction of anti-CD3/CD28 antibodies-stimulated human T cell activation at 1 uM assessed fold increase in IL-2 secretion measured by ELISA assay. It is filed as functional, T cell line.
Assay [24] has as its target T1, E3 ubiquitin-protein ligase CBL-B. Nature of the assay: Binding affinity towards N-terminal biotinylated Avi-tagged human CBL-B (36 to 427 residues) measured by surface plasmon resonance assay.

T1 sequence (Q13191 whole entry, the tested form may be a part): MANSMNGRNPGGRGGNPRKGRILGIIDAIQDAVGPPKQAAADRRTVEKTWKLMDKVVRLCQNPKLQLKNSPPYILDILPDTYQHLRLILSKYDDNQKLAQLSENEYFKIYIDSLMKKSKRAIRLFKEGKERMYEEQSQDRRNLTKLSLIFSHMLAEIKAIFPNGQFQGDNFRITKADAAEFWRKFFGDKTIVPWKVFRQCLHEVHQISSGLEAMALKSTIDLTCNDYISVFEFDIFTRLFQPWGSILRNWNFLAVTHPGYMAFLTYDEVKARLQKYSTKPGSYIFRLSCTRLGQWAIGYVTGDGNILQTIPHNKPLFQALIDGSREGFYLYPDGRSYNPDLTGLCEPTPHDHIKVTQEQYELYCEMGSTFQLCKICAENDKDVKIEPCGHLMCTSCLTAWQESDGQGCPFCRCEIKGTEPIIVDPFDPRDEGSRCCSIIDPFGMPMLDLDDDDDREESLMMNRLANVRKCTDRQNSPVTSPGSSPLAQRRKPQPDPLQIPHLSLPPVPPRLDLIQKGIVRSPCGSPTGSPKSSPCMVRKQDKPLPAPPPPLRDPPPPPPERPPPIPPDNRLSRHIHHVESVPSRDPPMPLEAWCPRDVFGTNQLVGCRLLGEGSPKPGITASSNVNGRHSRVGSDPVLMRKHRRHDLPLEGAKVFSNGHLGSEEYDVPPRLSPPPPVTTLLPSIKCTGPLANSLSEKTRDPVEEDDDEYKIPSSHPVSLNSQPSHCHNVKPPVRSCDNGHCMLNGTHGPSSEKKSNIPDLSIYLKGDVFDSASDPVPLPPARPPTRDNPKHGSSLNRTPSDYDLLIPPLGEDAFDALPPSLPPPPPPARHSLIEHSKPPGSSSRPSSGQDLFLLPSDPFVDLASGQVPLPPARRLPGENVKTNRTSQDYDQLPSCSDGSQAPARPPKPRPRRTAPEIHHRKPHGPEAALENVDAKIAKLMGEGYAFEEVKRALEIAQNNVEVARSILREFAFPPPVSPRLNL

For orientation: IC50 means the point on the concentration scale where inhibition reaches its midpoint. Read a high IC50 as weaker potency. With `C[C@H](c1cc2c(c(C(F)(F)F)c1)CN(c1cccc(C3(Cc4nncn4C)COC3)c1)C2=O)N1CC[C@H](F)C1`, the “fold change (FC)” value in assay [1] is over 3.01; in assay [2], over 4; in assay [4], “>=1.001”; in assay [5], 1; in assay [6], 1; in assay [7], 1. Also, the “fold change (FC)” value was over 4 in [8]; 1.201 in assay [9]; 2.01 in [10]; 1.51 in assay [11]; 1.401 in assay [12]; over 1.601 in assay [13]. The “fold change (FC)” value in assay [14] is 1.51; in assay [15], over 4.01; in assay [16] it was 1; in [17], 1; in assay [18], 1.201; in [19], 1.31. Further, the “fold change (FC)” value in assay [20] is recorded as 1; in [21] it was over 1.61; in assay [22] it was 1; in [23] it was “>=7.5”. In addition, the IC50 in assay [3] is under 100 nM.
With `Cn1cnnc1CC1(c2cccc(N3Cc4c(cc(CN5CC(F)C5)cc4C(F)(F)F)C3=O)c2)COC1`, the “fold change (FC)” value in [1] is reported as “<=2.5”; in assay [2], over 4; in assay [4] it was “>=1.001”; in assay [5], 1; in assay [6], 1; in assay [7], 1. Further, the “fold change (FC)” value is recorded as over 4 in assay [8]; 1.201 in assay [9]; 2.01 in assay [10]; 1.51 in assay [11]; 1.401 in assay [12]; 1.401 in assay [13]. Further, the “fold change (FC)” value is 2.01 in [14]; over 4.01 in assay [15]; 1 in [16]; under 1 in assay [17]; 1.201 in assay [18]; 1.31 in [19]. Further, the “fold change (FC)” value in [20] was 1; in assay [21] it was over 1.61; in [22], under 1; in assay [23], “>=7.5”. This compound also showed an IC50 in [3] of under 100 nM.
For `C[C@@H](c1cc2c(c(C(F)(F)F)c1)CN(c1cccc(C3(Cc4nncn4C)COC3)c1)C2=O)N1CC[C@H](F)C1`, the “fold change (FC)” value is given as “<=2.5” in [1]; over 4 in assay [2]; “>=1.001” in [4]; 1 in assay [5]; 2.01 in assay [6]; 1 in assay [7]. Also, the “fold change (FC)” value in assay [8] was over 4; in [9], 1.201; in [10], 2.01; in assay [11] it was 1.51; in assay [12] it was 1.401; in [13], 1.401. In addition, the “fold change (FC)” value in assay [14] is listed as over 4; in assay [15], over 4.01; in assay [16] it was 1.51; in assay [17], 1; in [18] it was 1.401; in assay [19] it was 1.31. For the same compound, the “fold change (FC)” value in [20] is given as 1.51; in [21], “<=1.4”; in [22], 2.01; in assay [23], “>=7.5”. In assay [3], this compound returned an IC50 of under 100 nM.
As usually defined, the Kd is the concentration at which binding is half-saturated. Turning to `COC1CN(Cc2cc3c(c(C(F)(F)F)c2)CN(c2cccc([C@@](C)(F)C(F)(F)c4nncn4C)c2)C3=O)C1`, the “fold change (FC)” value was “<=2.5” in assay [1]; over 4 in assay [2]; “>=1.001” in assay [4]; 3.01 in [8]; 1.201 in assay [9]; 2.01 in [10]. The “fold change (FC)” value in [11] was “<=1.5”; in assay [12], 1.401; in assay [13], 1.401; in assay [14], 1.51; in [15], over 4.01; in [18], 1.201. The “fold change (FC)” value in [19] was 1.01; in assay [21], over 1.61; in [23] it was 5. Moreover, the IC50 in assay [3] is under 100 nM. Further, in assay [24], the Kd is under 100 nM.
Consider `Cn1cnnc1[C@@H]1C[C@@H]1c1cccc(N2Cc3c(cccc3C(F)(F)F)C2=O)c1`, for which the “fold change (FC)” value in assay [1] is on record as 2.51; in [2] it was “<=2”; in assay [4], “>=1.001”; in [5] it was 1; in assay [6], 2.01; in [7], 1. For the same compound, the “fold change (FC)” value in assay [8] is given as 2.01; in [9] it was “<=1.2”; in assay [10] it was 2.01; in [11] it was “<=1.5”; in assay [12], “<=1.2”; in assay [13], 1.201. In addition, the “fold change (FC)” value is recorded as “<=1.5” in assay [14]; “<=2.5” in assay [15]; 1.51 in assay [16]; 1 in assay [17]; “<=1.2” in assay [18]; “>=1.76” in assay [19]. In addition, the “fold change (FC)” value in [20] is on record as 1; in assay [21], “<=1.4”; in assay [22] it was 1; in assay [23] it was 1.01.
In the case of `Cc1n[nH]c(C)c1-c1cc2c(c(C(F)(F)F)c1)CN(c1cccc(C3(Cc4nncn4C)COC3)c1)C2=O`, the “fold change (FC)” value in [1] is recorded as “<=2.5”; in assay [2] it was over 4; in [4], “>=1.001”; in assay [8], “<=2”; in assay [9] it was 1.201; in assay [10], 1.01. Also, the “fold change (FC)” value is recorded as “<=1.5” in assay [11]; 1.401 in [12]; 1.401 in assay [13]; 1.51 in assay [14]; over 4.01 in [15]; 1.201 in assay [18]. Also, the “fold change (FC)” value in assay [19] is 1.01; in assay [21], over 1.61; in assay [23], 2.51. The same compound yielded an IC50 in assay [3] of under 100 nM. The compound further showed a Kd in assay [24] of under 100 nM.
Regarding `C[C@H](Cc1nncn1C)c1cccc(NC(=O)c2cc3cc(N4CCNCC4)ccc3cn2)c1.Cl`, the “fold change (FC)” value is given as “<=2.5” in assay [1]; 3.01 in assay [2]; 0.801 in assay [4]; “<=2” in assay [8]; “<=1.2” in [9]; 1.01 in assay [10]. Also, the “fold change (FC)” value in assay [11] was “<=1.5”; in assay [12], 1.201; in [13], 1.401; in assay [14], 1.51; in assay [15], 2.51; in [18] it was “<=1.2”. Further, the “fold change (FC)” value in [19] is listed as 1.01; in assay [21], 1.41; in assay [23] it was 1.01. The IC50 in [3] is under 100 nM. Besides, the equilibrium dissociation constant (Kd) in assay [24] was under 100 nM.
